From PMC10819888, “Benzimidazole-Based Derivatives as Apoptotic Antiproliferative Agents: Design, Synthesis, Docking, and Mechanistic Studies” (Molecules, 2024)
Where two headings read alike, the source gives them in different places.

Columns and labels:
BRAF^V600E = experiment: biochemical
CNS Cancer subpanel = experiment: NCI-60 five-dose assay, subpanel; assay type: cell-based, human; conditions: for GI50: Homo sapiens, average sensitivity of all subpanel cell lines, read-out: GI50 Subpanel MID b
OVCAR-3 = experiment: NCI-60 five-dose assay; assay type: cell-based, human; conditions: for GI50 / CC50: Homo sapiens; for GI50: read-out: GI50 Conc. per Cell Line; for CC50: read-out: LC50 (the source's name)
KM12 = experiment: NCI-60 five-dose assay; assay type: cell-based, human; conditions: for GI50 / CC50: Homo sapiens; for GI50: read-out: GI50 Conc. per Cell Line; for CC50: read-out: LC50 (the source's name)
SR = experiment: NCI-60 five-dose assay; assay type: cell-based, human; conditions: for GI50 / CC50: Homo sapiens; for GI50: read-out: GI50 Conc. per Cell Line; for CC50: read-out: LC50 (the source's name)
A549/ATCC = experiment: NCI-60 five-dose assay; assay type: cell-based, human; conditions: for GI50 / CC50: Homo sapiens; for GI50: read-out: GI50 Conc. per Cell Line; for CC50: read-out: LC50 (the source's name)
Colon Cancer subpanel = experiment: NCI-60 five-dose assay, subpanel; assay type: cell-based, human; conditions: for GI50: Homo sapiens, average sensitivity of all subpanel cell lines, read-out: GI50 Subpanel MID b
HOP-62 = experiment: NCI-60 five-dose assay; assay type: cell-based, human; conditions: for GI50 / CC50: Homo sapiens; for GI50: read-out: GI50 Conc. per Cell Line; for CC50: read-out: LC50 (the source's name)
M14 = experiment: NCI-60 five-dose assay; assay type: cell-based, human; conditions: for GI50 / CC50: Homo sapiens; for GI50: read-out: GI50 Conc. per Cell Line; for CC50: read-out: LC50 (the source's name)
EKVX = experiment: NCI-60 five-dose assay; assay type: cell-based, human; conditions: for GI50 / CC50: Homo sapiens; for GI50: read-out: GI50 Conc. per Cell Line; for CC50: read-out: LC50 (the source's name)
Breast Cancer subpanel = experiment: NCI-60 five-dose assay, subpanel; assay type: cell-based, human; conditions: for GI50: Homo sapiens, average sensitivity of all subpanel cell lines, read-out: GI50 Subpanel MID b
MCF7 = experiment: NCI-60 five-dose assay; assay type: cell-based, human; conditions: for GI50 / CC50: Homo sapiens; for GI50: read-out: GI50 Conc. per Cell Line; for CC50: read-out: LC50 (the source's name)
Leukemia subpanel = experiment: NCI-60 five-dose assay, subpanel; assay type: cell-based, human; conditions: Leukemia; for GI50: Homo sapiens, average sensitivity of all subpanel cell lines, read-out: GI50 Subpanel MID b
OVCAR-8 = experiment: NCI-60 five-dose assay; assay type: cell-based, human; conditions: for GI50 / CC50: Homo sapiens; for GI50: read-out: GI50 Conc. per Cell Line; for CC50: read-out: LC50 (the source's name)
786-0 = experiment: NCI-60 five-dose assay; assay type: cell-based, human; conditions: for GI50 / CC50: Homo sapiens; for GI50: read-out: GI50 Conc. per Cell Line; for CC50: read-out: LC50 (the source's name)
MDA-MB-468 = experiment: NCI-60 five-dose assay; assay type: cell-based, human; conditions: for GI50: read-out: GI50 Conc. per Cell Line
[1] = system: Non-Small Cell Lung Cancer subpanel; experiment: NCI-60 five-dose assay, subpanel; assay type: cell-based, human; conditions: for GI50: Homo sapiens, average sensitivity of all subpanel cell lines, read-out: GI50 Subpanel MID b
MALME-3M = experiment: NCI-60 five-dose assay; assay type: cell-based, human; conditions: for GI50: read-out: GI50 Conc. per Cell Line
MOLT-4 = experiment: NCI-60 five-dose assay; assay type: cell-based, human; conditions: for GI50 / CC50: Homo sapiens; for GI50: read-out: GI50 Conc. per Cell Line; for CC50: read-out: LC50 (the source's name)
A498 = experiment: NCI-60 five-dose assay; assay type: cell-based, human; conditions: for GI50 / CC50: Homo sapiens; for GI50: read-out: GI50 Conc. per Cell Line; for CC50: read-out: LC50 (the source's name)
COLO 205 = experiment: NCI-60 five-dose assay; assay type: cell-based, human; conditions: for GI50: read-out: GI50 Conc. per Cell Line
[2] = A549/ATCC (Non-Small Cell Lung Cancer), 48 h
[3] = HOP-62 (Non-Small Cell Lung Cancer), 48 h
[4] = EKVX (Non-Small Cell Lung Cancer), 48 h
[5] = A549/ATCC, Non-Small Cell Lung Cancer
[6] = HOP-62, Non-Small Cell Lung Cancer
[7] = EKVX, Non-Small Cell Lung Cancer
[8] = Homo sapiens, MDA-MB-468, Breast Cancer
[9] = Homo sapiens, MALME-3M, Melanoma

BRAF^V600E, sequence (P28028 whole entry V585E): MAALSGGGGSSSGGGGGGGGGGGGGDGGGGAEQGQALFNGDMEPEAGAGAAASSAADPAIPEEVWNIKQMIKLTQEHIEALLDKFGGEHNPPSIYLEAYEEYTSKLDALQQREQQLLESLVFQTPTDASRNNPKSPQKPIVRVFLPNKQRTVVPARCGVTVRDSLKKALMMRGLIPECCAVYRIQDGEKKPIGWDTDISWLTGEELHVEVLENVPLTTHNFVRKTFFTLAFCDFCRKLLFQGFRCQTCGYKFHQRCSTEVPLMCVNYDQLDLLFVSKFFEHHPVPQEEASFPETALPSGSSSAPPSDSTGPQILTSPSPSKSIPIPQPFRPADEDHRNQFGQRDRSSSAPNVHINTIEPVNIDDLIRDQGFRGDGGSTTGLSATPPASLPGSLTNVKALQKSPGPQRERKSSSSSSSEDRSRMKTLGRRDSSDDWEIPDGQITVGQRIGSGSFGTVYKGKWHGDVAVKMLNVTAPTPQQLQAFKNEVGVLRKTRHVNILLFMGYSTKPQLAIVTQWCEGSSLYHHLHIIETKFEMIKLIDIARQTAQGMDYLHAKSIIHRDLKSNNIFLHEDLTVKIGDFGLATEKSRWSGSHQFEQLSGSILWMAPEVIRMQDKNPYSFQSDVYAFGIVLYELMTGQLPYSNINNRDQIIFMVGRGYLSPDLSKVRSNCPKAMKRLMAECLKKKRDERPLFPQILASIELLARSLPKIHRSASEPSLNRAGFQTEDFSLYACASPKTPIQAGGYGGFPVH

COc1cc(/C=N/NC(=O)c2ccc3[nH]c(-c4ccc(Cl)cc4)nc3c2)cc(OC)c1OC [Compound 4h, N′-(3,4,5-Trimethoxybenzylidene)-2-(4-chlorophenyl)-1H-benzimidazole-5 carbohydrazide]
IC50 (BRAF^V600E): 0.82 ± 0.06 µM

O=C(NN=Cc1ccc([N+](=O)[O-])cc1)c1ccc2[nH]c(-c3ccc(Cl)cc3)nc2c1 [Compound 4c, N′-(4-Nitrobenzylidene)-2-(4-chlorophenyl)-1H-benzimidazole-5-carbohydrazide]
GI50 Selectivity Ratio (MID a/MID b) (CNS Cancer subpanel; CNS Cancer subpanel): 0.81 | GI50 (CNS Cancer subpanel; CNS Cancer): 4.05 µM | GI50 (OVCAR-3; OVCAR-3 (Ovarian Cancer), 48 h): 3.25 µM | CC50 (OVCAR-3; OVCAR-3 (Ovarian Cancer), 48 h): 40.9 µM | TGI (OVCAR-3; OVCAR-3 (Ovarian Cancer), 48 h): 8.23 µM | GI50 (KM12; KM12 (Colon Cancer), 48 h): 3.43 µM | CC50 (KM12; KM12 (Colon Cancer), 48 h): 82.6 µM | TGI (KM12; KM12 (Colon Cancer), 48 h): 13.00 µM | GI50 (SR; SR (Leukemia), 48 h): 0.566 µM | CC50 (SR; SR (Leukemia), 48 h): > 100 µM | TGI (SR; SR (Leukemia), 48 h): 4.87 µM | TGI (A549/ATCC; [2]): 24.10 µM | GI50 (A549/ATCC; [2]): 3.98 µM | CC50 (A549/ATCC; [2]): > 100 µM | GI50 Selectivity Ratio (MID a/MID b) (Colon Cancer subpanel; Colon Cancer subpanel): 1.30 | GI50 (Colon Cancer subpanel; Colon Cancer): 2.53 µM | TGI (HOP-62; [3]): 30.80 µM | GI50 (HOP-62; [3]): 6.42 µM | CC50 (HOP-62; [3]): > 100 µM | GI50 (M14; M14 (Melanoma), 48 h): 2.73 µM | CC50 (M14; M14 (Melanoma), 48 h): 67.1 µM | TGI (M14; M14 (Melanoma), 48 h): 9.13 µM | TGI (EKVX; [4]): 21.20 µM | GI50 (EKVX; [4]): 3.19 µM | CC50 (EKVX; [4]): > 100 µM | GI50 Selectivity Ratio (MID a/MID b) (Breast Cancer subpanel; Breast Cancer subpanel): 1.31 | GI50 (Breast Cancer subpanel; Breast Cancer): 2.5 µM | GI50 (MCF7; MCF7 (Breast Cancer), 48 h): 0.582 µM | CC50 (MCF7; MCF7 (Breast Cancer), 48 h): 13.3 µM | TGI (MCF7; MCF7 (Breast Cancer), 48 h): 2.85 µM | GI50 (Leukemia subpanel): 0.55 µM | GI50 (OVCAR-8; OVCAR-8 (Ovarian Cancer), 48 h): 2.89 µM | CC50 (OVCAR-8; OVCAR-8 (Ovarian Cancer), 48 h): > 100 µM | TGI (OVCAR-8; OVCAR-8 (Ovarian Cancer), 48 h): 13.70 µM | TGI (786-0; 786-0 (Renal Cancer), 48 h): 15.70 µM | GI50 (786-0; 786-0 (Renal Cancer), 48 h): 3.92 µM | CC50 (786-0; 786-0 (Renal Cancer), 48 h): 58.2 µM | GI50 (MDA-MB-468; Homo sapiens, MDA-MB-468 (Breast Cancer), 48 h): 1.97 µM | TGI (MDA-MB-468; MDA-MB-468 (Breast Cancer), 48 h): 4.79 µM | GI50 ([1]; Non-Small Cell Lung Cancer): 3.52 µM | GI50 Selectivity Ratio (MID a/MID b) ([1]; Non-Small Cell Lung Cancer subpanel): 0.93 | GI50 (MALME-3M; Homo sapiens, MALME-3M (Melanoma), 48 h): 1.48 µM | TGI (MALME-3M; MALME-3M (Melanoma), 48 h): 5.00 µM | GI50 (MOLT-4; MOLT-4 (Leukemia), 48 h): 0.421 µM | CC50 (MOLT-4; MOLT-4 (Leukemia), 48 h): > 100 µM | TGI (MOLT-4; MOLT-4 (Leukemia), 48 h): 3.85 µM | TGI (A498; A498 (Renal Cancer), 48 h): 7.75 µM | GI50 (A498; A498 (Renal Cancer), 48 h): 2.4 µM | CC50 (A498; A498 (Renal Cancer), 48 h): 36.4 µM | IC50 (BRAF^V600E): 0.31 ± 0.07 µM | TGI (COLO 205; COLO 205 (Colon Cancer), 48 h): 3.76 µM | GI50 (COLO 205; Homo sapiens, COLO 205 (Colon Cancer), 48 h): 1.46 µM

COc1ccc(C=NNC(=O)c2ccc3[nH]c(-c4ccc(Cl)cc4)nc3c2)cc1 [Compound 4g, N′-(4-Methoxybenzylidene)-2-(4-chlorophenyl)-1H-benzimidazole-5-carbohydrazide]
GI50 Selectivity Ratio (MID a/MID b) (CNS Cancer subpanel; CNS Cancer): 1.15 | GI50 (CNS Cancer subpanel; CNS Cancer): 2.19 µM | GI50 (OVCAR-3; OVCAR-3, Ovarian Cancer): 2.28 µM | CC50 (OVCAR-3; OVCAR-3, Ovarian Cancer): 16 µM | TGI (OVCAR-3; OVCAR-3, Ovarian Cancer): 5.14 µM | GI50 (KM12; KM12, Colon Cancer): 3.03 µM | CC50 (KM12; KM12, Colon Cancer): > 100 µM | TGI (KM12; KM12, Colon Cancer): 9.58 µM | GI50 (SR; SR, Leukemia): 2.87 µM | CC50 (SR; SR, Leukemia): > 100 µM | TGI (SR; SR, Leukemia): 15.40 µM | TGI (A549/ATCC; [5]): 5.65 µM | GI50 (A549/ATCC; [5]): 2.46 µM | CC50 (A549/ATCC; [5]): 48.1 µM | GI50 Selectivity Ratio (MID a/MID b) (Colon Cancer subpanel; Colon Cancer): 0.96 | GI50 (Colon Cancer subpanel; Colon Cancer): 2.63 µM | TGI (HOP-62; [6]): 6.37 µM | GI50 (HOP-62; [6]): 1.88 µM | CC50 (HOP-62; [6]): 53.6 µM | GI50 (M14; M14, Melanoma): 2.41 µM | CC50 (M14; M14, Melanoma): 40.5 µM | TGI (M14; M14, Melanoma): 7.76 µM | TGI (EKVX; [7]): 5.84 µM | GI50 (EKVX; [7]): 2.11 µM | CC50 (EKVX; [7]): 36.6 µM | GI50 Selectivity Ratio (MID a/MID b) (Breast Cancer subpanel; Breast Cancer): 1.12 | GI50 (Breast Cancer subpanel; Breast Cancer): 2.24 µM | GI50 (MCF7; MCF7, Breast Cancer): 1.47 µM | CC50 (MCF7; MCF7, Breast Cancer): 10 µM | TGI (MCF7; MCF7, Breast Cancer): 3.84 µM | GI50 (Leukemia subpanel): 2.88 µM | GI50 Selectivity Ratio (MID a/MID b) (Leukemia subpanel): 0.87 | GI50 (OVCAR-8; OVCAR-8, Ovarian Cancer): 3.19 µM | CC50 (OVCAR-8; OVCAR-8, Ovarian Cancer): > 100 µM | TGI (OVCAR-8; OVCAR-8, Ovarian Cancer): 11.50 µM | TGI (786-0; 786-0, Renal Cancer): 3.67 µM | GI50 (786-0; 786-0, Renal Cancer): 1.93 µM | CC50 (786-0; 786-0, Renal Cancer): 6.98 µM | LC50 (concentration killing 50% of cells) (MDA-MB-468; [8]): 12.6 µM | GI50 (MDA-MB-468; [8]): 1.94 µM | TGI (MDA-MB-468; MDA-MB-468, Breast Cancer): 4.55 µM | GI50 ([1]; Non-Small Cell Lung Cancer): 2.71 µM | GI50 Selectivity Ratio (MID a/MID b) ([1]; Non-Small Cell Lung Cancer): 0.93 | LC50 (MALME-3M; [9]): 7.9 µM | GI50 (MALME-3M; [9]): 1.67 µM | TGI (MALME-3M; MALME-3M, Melanoma): 3.63 µM | GI50 (MOLT-4; MOLT-4, Leukemia): 4.53 µM | CC50 (MOLT-4; MOLT-4, Leukemia): > 100 µM | TGI (MOLT-4; MOLT-4, Leukemia): 30.40 µM | TGI (A498; A498, Renal Cancer): 9.87 µM | GI50 (A498; A498, Renal Cancer): 2.45 µM | CC50 (A498; A498, Renal Cancer): 54.6 µM | IC50 (BRAF^V600E): 0.6 ± 0.05 µM | TGI (COLO 205; COLO 205, Colon Cancer): 5.43 µM | GI50 (COLO 205; Homo sapiens, COLO 205, Colon Cancer): 1.94 µM | CC50 (COLO 205; Homo sapiens, COLO 205, Colon Cancer, read-out: LC50 (the source's name)): 33 µM
